{
  "source": "paper PMC3177607",
  "about": "(Bioorganic & medicinal chemistry letters, 2008)",
  "key": {"M2": {"target": "T1, M2 (Homo sapiens, UniProt P08172)", "T1 sequence (P08172 1-466)": "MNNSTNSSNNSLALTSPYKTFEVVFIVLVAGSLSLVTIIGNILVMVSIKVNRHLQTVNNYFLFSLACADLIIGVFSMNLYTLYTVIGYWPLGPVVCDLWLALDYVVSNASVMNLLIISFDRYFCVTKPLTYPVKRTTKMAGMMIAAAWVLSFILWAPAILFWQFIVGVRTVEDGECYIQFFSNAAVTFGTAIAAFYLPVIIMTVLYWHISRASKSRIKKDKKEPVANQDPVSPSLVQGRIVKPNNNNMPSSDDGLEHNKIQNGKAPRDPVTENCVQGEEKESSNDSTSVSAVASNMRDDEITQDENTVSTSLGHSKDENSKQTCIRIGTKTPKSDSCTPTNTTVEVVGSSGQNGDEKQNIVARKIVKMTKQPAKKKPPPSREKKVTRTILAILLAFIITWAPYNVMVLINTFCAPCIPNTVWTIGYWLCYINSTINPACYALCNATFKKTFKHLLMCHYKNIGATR", "assay": "M2 functional activation", "type": "cell-based"}, "M5": {"target": "T2, M5 (Homo sapiens, UniProt P08912)", "T2 sequence (P08912 1-532)": "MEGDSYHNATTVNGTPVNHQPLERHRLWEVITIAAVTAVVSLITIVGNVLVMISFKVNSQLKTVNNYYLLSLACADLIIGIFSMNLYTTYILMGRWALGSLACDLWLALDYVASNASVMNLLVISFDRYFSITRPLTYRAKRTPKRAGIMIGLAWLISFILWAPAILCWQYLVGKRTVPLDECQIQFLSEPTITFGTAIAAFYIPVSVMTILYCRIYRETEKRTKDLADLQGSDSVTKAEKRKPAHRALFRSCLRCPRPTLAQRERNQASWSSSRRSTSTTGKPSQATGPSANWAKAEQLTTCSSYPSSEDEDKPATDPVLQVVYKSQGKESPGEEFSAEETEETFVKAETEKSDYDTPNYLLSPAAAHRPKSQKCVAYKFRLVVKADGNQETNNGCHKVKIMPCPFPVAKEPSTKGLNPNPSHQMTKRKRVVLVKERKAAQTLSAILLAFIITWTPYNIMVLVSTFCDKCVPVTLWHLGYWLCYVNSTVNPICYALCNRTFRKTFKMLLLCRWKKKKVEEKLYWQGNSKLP", "assay": "M5 functional activation", "type": "cell-based"}, "M1": {"target": "T3, M1 (Rattus norvegicus, UniProt P08482)", "T3 sequence (P08482 1-460)": "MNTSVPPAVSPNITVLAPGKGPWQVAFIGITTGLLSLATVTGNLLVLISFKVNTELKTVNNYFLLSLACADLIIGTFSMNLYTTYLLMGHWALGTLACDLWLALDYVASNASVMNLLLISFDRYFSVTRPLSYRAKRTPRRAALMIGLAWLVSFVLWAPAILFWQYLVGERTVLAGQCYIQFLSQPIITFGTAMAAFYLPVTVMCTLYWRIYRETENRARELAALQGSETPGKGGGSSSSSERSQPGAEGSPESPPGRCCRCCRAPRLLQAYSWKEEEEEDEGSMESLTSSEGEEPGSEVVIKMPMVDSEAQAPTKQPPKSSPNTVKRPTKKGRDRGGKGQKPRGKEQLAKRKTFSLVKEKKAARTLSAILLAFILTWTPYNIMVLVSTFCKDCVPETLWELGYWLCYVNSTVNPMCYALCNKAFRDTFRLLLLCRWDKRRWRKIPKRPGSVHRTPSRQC", "assay": "10 μM single point M1 activation screen", "type": "cell-based", "conditions": "in triplicate, relative to ACh, CCh and TBPB controls"}, "M4": {"target": "T4, M4 (Homo sapiens, UniProt P08173)", "T4 sequence (P08173 1-479)": "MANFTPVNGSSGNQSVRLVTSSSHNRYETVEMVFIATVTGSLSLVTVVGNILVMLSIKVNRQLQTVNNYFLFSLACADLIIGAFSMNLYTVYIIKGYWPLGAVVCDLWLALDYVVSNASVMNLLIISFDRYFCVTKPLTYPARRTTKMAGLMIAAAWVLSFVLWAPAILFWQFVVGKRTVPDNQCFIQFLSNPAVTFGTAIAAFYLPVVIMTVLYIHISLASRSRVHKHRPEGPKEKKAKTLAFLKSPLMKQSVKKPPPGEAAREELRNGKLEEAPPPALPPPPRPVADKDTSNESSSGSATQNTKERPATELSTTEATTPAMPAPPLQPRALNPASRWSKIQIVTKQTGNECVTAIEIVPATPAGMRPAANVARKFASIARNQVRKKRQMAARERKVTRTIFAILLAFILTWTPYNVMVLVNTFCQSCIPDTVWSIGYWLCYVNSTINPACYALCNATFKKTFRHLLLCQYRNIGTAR", "assay": "M4 functional activation", "type": "cell-based"}, "D2 [1]": {"target": "T5, D2 (Homo sapiens, UniProt P14416)", "T5 sequence (P14416 whole entry)": "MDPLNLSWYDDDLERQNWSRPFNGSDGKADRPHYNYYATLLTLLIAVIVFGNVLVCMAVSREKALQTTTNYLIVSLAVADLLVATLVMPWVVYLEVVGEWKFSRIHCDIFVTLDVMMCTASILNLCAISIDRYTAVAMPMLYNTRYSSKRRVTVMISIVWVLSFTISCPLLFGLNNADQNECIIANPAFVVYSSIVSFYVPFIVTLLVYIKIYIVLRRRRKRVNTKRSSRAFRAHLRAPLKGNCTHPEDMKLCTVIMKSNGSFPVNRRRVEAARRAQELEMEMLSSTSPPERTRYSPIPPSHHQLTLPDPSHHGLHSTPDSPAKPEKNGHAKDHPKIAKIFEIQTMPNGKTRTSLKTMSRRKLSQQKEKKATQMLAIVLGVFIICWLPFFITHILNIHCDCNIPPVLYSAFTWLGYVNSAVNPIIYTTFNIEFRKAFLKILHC", "assay": "D2 inhibition", "type": "cell-based"}, "M3": {"target": "M3 (Homo sapiens, UniProt P20309)", "sequence (P20309 whole entry)": "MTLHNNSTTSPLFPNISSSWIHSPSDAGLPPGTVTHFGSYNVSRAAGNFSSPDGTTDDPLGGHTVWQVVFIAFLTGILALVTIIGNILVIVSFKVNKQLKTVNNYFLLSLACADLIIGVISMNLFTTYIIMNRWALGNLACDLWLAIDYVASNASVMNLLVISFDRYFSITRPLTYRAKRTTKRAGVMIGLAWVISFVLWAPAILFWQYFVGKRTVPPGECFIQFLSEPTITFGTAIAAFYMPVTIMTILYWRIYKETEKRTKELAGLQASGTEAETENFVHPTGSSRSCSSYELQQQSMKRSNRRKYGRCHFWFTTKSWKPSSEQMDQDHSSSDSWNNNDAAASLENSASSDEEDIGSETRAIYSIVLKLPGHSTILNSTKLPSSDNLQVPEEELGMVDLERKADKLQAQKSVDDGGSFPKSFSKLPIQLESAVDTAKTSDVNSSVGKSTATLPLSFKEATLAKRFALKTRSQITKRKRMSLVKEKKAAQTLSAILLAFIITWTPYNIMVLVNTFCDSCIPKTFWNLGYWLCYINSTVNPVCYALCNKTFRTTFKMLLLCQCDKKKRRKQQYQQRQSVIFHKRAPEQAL", "assay": "M3 functional activation", "type": "cell-based"}, "D2 [2]": {"target": "T5, D2", "conditions": "cited from earlier work"}},
  "note": "Read-outs that look alike come from different tables or passages of the source.",
  "data": [
    {"smiles": "O=c1[nH]c2ccccc2n1C1CCN(C2CCN(S(=O)(=O)c3ccccc3)CC2)CC1", "note": "[9c]", "values": [
      {"measurement": "EC50", "setting": "M2", "result": "> 30", "unit": "µM"},
      {"measurement": "EC50", "setting": "M5", "result": "> 30", "unit": "µM"},
      {"measurement": "M1 activation, single point screen", "setting": "M1", "result": "activated M1"},
      {"measurement": "EC50", "setting": "M4", "result": "> 30", "unit": "µM"},
      {"measurement": "inhibition at 10 µM", "setting": "D2 [1]; read-out: inhibition of D2", "result": "~10", "unit": "%"},
      {"measurement": "EC50", "setting": "M3", "result": "> 30", "unit": "µM"}
    ]},
    {"smiles": "O=C(Nc1cccc(SC(F)(F)F)c1)N1CCC(N2CCC(n3c(=O)[nH]c4ccccc43)CC2)CC1", "note": "[10i]", "values": [
      {"measurement": "M1 activation, single point screen", "setting": "M1", "result": "activated M1"}
    ]},
    {"smiles": "O=c1[nH]c2ccc(F)cc2n1C1CCN(C2CCN(S(=O)(=O)c3ccccc3)CC2)CC1", "note": "[14c]", "values": [
      {"measurement": "inhibition of D2", "setting": "D2 [1]; at concentrations up to 10 μM", "result": "did not inhibit"}
    ]},
    {"smiles": "O=c1[nH]c2ccccc2n1C1CCN(C2CCN(Cc3ccccc3C(F)(F)F)CC2)CC1", "note": "[compound 2]", "values": [
      {"measurement": "D2 inhibitory activity", "setting": "D2 [2]", "result": "no D2 inhibitory activity"}
    ]},
    {"smiles": "CCOC(=O)N1CCC(N2CCC(n3c(=O)[nH]c4ccccc43)CC2)CC1", "note": "[ethyl carbamate congener]", "values": [
      {"measurement": "% CCh Max at M2", "setting": "M2", "result": 80.6, "unit": "%"},
      {"measurement": "EC50", "setting": "M2; read-out: M2 EC50", "result": 0.0119, "unit": "µM"},
      {"measurement": "% CCh Max at M5", "setting": "M5", "result": 50.8, "unit": "%"},
      {"measurement": "EC50", "setting": "M5; read-out: M5 EC50", "result": 0.0343, "unit": "µM"},
      {"measurement": "% CCh Max at M4", "setting": "M4", "result": 96.9, "unit": "%"},
      {"measurement": "EC50", "setting": "M4; read-out: M4 EC50", "result": 0.0091, "unit": "µM"}
    ]}
  ]
}
